The subject of data set [1] is HCT-116. The experiment in a line: cells. The settings on record: Homo sapiens.
Description: Antiproliferative against human HCT116 cells
Data set [2] has as its target T1, Heat shock protein HSP 90-beta (Homo sapiens, UniProt P08238). The experiment in a line: Binding affinity to Hsp90 by fluorescence polarization assay. Background: Fluorescence polarisation rises when a labelled molecule tumbles more slowly, as on binding a larger partner.
The test system of data set [3] is HCT-116. The experiment in a line: Antitumor activity in human HCT116 cells xenografted mouse assessed as inhibition of tumor growth at 100 mg/kg, ip. The data set is classed as functional. The following applies: HCT-116, ip, route intraperitoneal, read-out: GI. In general terms: Xenograft models place foreign cells or tissue in a host animal.
In data set [4] the target is T1, Heat shock protein HSP 90-beta. The experiment in a line: Inhibition of Hsp90.
For data set [5] the target is unchanged. Description: Inhibition of Hsp90 in human MCF7 cells assessed as Her2 degradation. The data set is classed as cell-based.
Data set [6] shares this target. Description: Inhibition of Hsp90 in human SKBR3 cells assessed as Her2 degradation. The data set is classed as cell-based, SK-BR-3.
The nature of data set [7]: Solubility in water. The data set is classed as physicochemical.
The target of data set [8] is Receptor tyrosine-protein kinase erbB-2 (Homo sapiens, UniProt P04626). The experiment in a line: Inhibition of Her2 in human SKBR3 cells. The data set is classed as cell-based, SK-BR-3.
Receptor tyrosine-protein kinase erbB-2, sequence (P04626 whole entry): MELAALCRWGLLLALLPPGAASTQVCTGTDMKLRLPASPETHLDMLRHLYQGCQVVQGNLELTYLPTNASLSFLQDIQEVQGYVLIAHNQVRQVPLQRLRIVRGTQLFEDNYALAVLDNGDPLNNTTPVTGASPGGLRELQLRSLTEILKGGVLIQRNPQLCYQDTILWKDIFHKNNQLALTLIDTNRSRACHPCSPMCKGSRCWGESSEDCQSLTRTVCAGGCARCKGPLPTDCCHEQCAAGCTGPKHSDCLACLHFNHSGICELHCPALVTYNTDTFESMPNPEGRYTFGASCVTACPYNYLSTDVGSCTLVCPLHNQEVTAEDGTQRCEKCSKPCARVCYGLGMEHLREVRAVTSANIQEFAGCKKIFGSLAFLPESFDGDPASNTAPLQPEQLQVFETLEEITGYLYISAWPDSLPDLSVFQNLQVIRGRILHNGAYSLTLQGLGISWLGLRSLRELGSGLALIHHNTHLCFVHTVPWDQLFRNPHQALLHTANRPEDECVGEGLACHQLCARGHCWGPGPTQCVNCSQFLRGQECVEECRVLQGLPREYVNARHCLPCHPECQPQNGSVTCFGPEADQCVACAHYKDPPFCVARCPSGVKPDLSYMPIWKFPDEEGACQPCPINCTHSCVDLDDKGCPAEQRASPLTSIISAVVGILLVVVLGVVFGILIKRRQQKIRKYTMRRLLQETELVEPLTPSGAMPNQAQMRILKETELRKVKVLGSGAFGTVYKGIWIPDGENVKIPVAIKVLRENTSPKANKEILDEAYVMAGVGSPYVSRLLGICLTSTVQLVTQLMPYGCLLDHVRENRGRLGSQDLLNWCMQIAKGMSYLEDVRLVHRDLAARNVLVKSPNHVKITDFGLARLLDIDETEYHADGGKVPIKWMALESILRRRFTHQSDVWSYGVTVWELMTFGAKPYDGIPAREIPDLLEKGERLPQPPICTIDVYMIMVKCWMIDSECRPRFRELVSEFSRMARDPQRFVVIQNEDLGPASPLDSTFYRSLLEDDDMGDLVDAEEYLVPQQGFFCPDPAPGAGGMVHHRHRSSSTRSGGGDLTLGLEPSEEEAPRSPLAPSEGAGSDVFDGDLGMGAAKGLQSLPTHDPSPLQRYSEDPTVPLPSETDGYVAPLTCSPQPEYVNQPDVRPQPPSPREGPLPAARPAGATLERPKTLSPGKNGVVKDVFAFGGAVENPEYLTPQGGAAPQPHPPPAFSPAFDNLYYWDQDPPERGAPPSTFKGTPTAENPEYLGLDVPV
The test system of data set [9] is MCF7. The experiment in a line: Cytotoxicity against human MCF7 cells. The data set is classed as functional, cell-based.
The target in data set [10] is T1, Heat shock protein HSP 90-beta. Description: Binding affinity to Hsp90 in human SKBR3 cells. The data set is classed as cell-based, SK-BR-3.
Data set [11] concerns the target ATP-dependent molecular chaperone HSP82 (Saccharomyces cerevisiae S288c, UniProt P02829). The experiment in a line: Binding affinity to yeast Hsp90 ATPase activity.
Data set [12] is described as follows: cells. The settings on record: Homo sapiens, NCI60, read-out: GI.
Description: Growth inhibition of human NCI60 cells at 13 nM
The subject of data set [13] is MCF7. Description: Antitumor activity in human MCF7 cells xenografted mouse assessed as reduction of tumor burden at 200 mg/kg, ip administered alternative days. Also noted: scale not given: the % may be the effect or the level left. The following applies: route intraperitoneal. The data set is classed as functional.
A short description of data set [14]: Inhibition of Rous sarcoma virus v-Src.
Data set [15] deals with T1, Heat shock protein HSP 90-beta. The experiment in a line: Inhibition of Hsp90 assessed as Her2 degradation by cell based assay.
The subject of data set [16] is NCI-N87. Description: Antitumor activity in human NCI-N87 cells xenografted mouse assessed as inhibition of tumor growth at 60 mg/kg, po administered daily once for 5 days per week measured after 5 weeks. The settings on record: read-out: GI. The data set is classed as functional.
In data set [17] the test system is NCI-N87. Description: Antitumor activity in human NCI-N87 cells xenografted mouse assessed as inhibition of tumor growth at 125 mg/kg, po administered daily once for 5 days per week measured after 5 weeks. The data set is classed as functional. The following applies: read-out: GI.
Data set [18] has as its system HCT-116. The experiment in a line: Antitumor activity in human HCT116 cells xenografted mouse assessed as inhibition of tumor growth at 50 mg/kg, ip. The following applies: HCT-116, ip, route intraperitoneal, read-out: GI. The data set is classed as functional.
In data set [19] the test system is NCI-N87. Description: Antitumor activity in human NCI-N87 cells xenografted mouse assessed as inhibition of tumor growth at 200 mg/kg, po administered daily once for 5 days per week measured after 30 days. The data set is classed as functional. The settings on record: read-out: GI.

Values after ≈ are worked out from the molar mass of the structure shown.

T1 sequence (P08238 whole entry): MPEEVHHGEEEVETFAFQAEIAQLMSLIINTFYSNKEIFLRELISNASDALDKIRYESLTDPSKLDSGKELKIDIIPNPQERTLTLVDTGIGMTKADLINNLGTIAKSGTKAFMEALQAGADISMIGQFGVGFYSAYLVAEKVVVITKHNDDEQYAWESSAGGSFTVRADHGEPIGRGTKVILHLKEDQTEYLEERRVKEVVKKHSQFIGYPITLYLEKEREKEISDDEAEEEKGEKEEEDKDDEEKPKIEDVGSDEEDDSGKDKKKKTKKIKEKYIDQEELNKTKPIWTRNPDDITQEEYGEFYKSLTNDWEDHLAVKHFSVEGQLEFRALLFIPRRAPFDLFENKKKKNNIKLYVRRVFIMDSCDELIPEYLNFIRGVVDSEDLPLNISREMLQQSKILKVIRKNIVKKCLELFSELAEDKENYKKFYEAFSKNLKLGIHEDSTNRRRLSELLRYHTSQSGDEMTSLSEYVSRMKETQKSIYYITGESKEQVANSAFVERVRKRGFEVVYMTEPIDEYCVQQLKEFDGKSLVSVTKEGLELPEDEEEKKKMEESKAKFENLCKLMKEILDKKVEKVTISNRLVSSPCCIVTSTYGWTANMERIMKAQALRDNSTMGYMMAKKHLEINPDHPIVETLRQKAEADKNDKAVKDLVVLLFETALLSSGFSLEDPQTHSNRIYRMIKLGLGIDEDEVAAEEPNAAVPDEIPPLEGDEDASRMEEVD
ATP-dependent molecular chaperone HSP82, sequence (P02829 whole entry): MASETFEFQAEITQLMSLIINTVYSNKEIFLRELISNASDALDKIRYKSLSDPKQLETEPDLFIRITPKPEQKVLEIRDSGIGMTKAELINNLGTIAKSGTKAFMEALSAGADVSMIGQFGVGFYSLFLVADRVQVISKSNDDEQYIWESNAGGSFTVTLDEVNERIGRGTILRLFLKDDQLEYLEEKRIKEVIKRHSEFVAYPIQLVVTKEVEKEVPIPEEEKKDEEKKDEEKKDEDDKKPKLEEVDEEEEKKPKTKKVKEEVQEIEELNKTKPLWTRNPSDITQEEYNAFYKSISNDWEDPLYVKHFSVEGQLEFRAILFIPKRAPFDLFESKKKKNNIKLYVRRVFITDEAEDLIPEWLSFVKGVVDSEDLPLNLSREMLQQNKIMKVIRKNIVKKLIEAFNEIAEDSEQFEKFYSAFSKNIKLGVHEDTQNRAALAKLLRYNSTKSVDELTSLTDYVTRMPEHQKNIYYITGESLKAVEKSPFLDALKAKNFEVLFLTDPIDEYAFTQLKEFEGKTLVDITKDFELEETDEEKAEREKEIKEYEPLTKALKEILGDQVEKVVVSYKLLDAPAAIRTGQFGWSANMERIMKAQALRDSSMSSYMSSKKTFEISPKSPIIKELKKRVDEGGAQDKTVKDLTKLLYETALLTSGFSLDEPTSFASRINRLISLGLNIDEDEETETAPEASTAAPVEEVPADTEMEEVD

By GI50 is commonly meant the concentration giving 50% growth inhibition. With `O=S(=O)(Nc1ccc(O)c(-c2c(O)ccc3ccccc23)c1)c1cc(Cl)ccc1Cl`, the GI50 in [1] was 29000 nM. A word on the Ki: it is the equilibrium dissociation constant of an inhibitor or competing ligand from its target. In the case of `Cc1cc(C#Cc2ccccc2/C=N/N2CCOC2=O)nc(N)n1`, in data set [2], the inhibition constant Ki amounted to 4000 nM. On to `CCNC(=O)c1noc(-c2cc(Cl)c(O)cc2O)c1-c1ccc(OC)cc1`, for which the inhibition in vivo at 100 mg/kg in data set [3] amounted to 30%. Broadly, the IC50 is the concentration that inhibits the measured activity by half. `C[C@H]1C[C@H]2O[C@@H]2CC/C=C/C(=O)Cc2c(Cl)c(O)cc(O)c2C(=O)O1` [POCHONIN A] showed an IC50 in [4] of 90 nM.

As for `Nc1ncnc2c1nc(Sc1nc3cccc(Cl)c3s1)n2CCNC1CC1`, in data set [5], the IC50 was 110 nM. In [4], `C[C@H]1CCCC(=O)CCCCCc2cc(O)cc(O)c2C(=O)O1` [ZEARALANONE] registered a half-inhibitory concentration (IC50) of 90 nM. Regarding `Oc1cc(O)c(-c2noc3ccc(NCCN4CCOCC4)cc23)cc1Cl`, in data set [2], the IC50 was 30 nM. `Cc1nc(-c2c(-c3ccc(O)cc3O)noc2C(F)(F)F)cs1` yielded an IC50 in data set [4] of 9000 nM. By EC50 is commonly meant the concentration at which the effect is half-maximal. The compound `C#CCCCn1c(Sc2cc3c(cc2Br)OCO3)nc2c(N)ncnc21` showed a concentration giving a half-maximal response (EC50) in data set [4] of 30 nM. Besides, the 50% inhibitory concentration (IC50) in [6] was 300 nM. What is called solubility is the concentration that dissolves in the medium under given conditions. For `C=CCNc1c(O)cc2c(O)c1C[C@@H](C)C[C@H](OC)[C@H](O)[C@@H](C)/C=C(\C)[C@H](OC(N)=O)[C@@H](OC)/C=C\C=C(/C)C(=O)N2.Cl` [RETASPIMYCIN HYDROCHLORIDE], in [7], the solubility was over 250000 µg/mL. On to `C=CCNC1=C2C[C@@H](C)C[C@H](OC)[C@H](O)[C@@H](C)/C=C(\C)[C@H](OC(N)=O)[C@@H](OC)/C=C\C=C(/C)C(=O)NC(=CC1=O)C2=O` [TANESPIMYCIN], for which the midpoint of inhibition in data set [8], the IC50, lay at 31 nM. This compound also returned a solubility in data set [7] of 50 µg/mL (≈ 0.0854 mM). Consider `CC(C)NCCCn1c(Cc2cc3c(cc2I)OCO3)nc2c(N)nc(F)nc21`, for which, in data set [6], the IC50 was determined as 90 nM. Moreover, in data set [2], the response was half-maximal at 22 nM (EC50). Consider `CCCCn1c(Sc2nc3cccc(Cl)c3s2)nc2c(N)ncnc21`, for which, in data set [5], the IC50 is 180 nM. Compound `CS(=O)(=O)c1ccc(CN2CCN(c3cn[nH]c3-c3cc(Cl)c(O)cc3O)CC2)cc1` registered a 50% inhibitory concentration (IC50) in data set [2] of 740 nM. The compound further came in with a GI50 in data set [1] of 3100 nM. Consider `C[C@@H]1C[C@H]2O[C@@H]2/C=C\C=C\C(=O)Cc2c(Cl)c(O)cc(O)c2C(=O)O1` [RADICICOL], for which the concentration for half-maximal inhibition (IC50) in data set [9] was 23 nM.

In general, Kd refers to the concentration at which binding is half-saturated. `CO[C@H]1C[C@H](C)Cc2cc(O)cc(c2)NC(=O)/C=C/CC[C@H](OC)[C@@H](OC(N)=O)/C(C)=C/[C@H](C)[C@H]1O` registered a Kd in [10] of 16 nM. On to `CCNC(=O)c1noc(-c2cc(C(C)C)c(O)cc2O)c1-c1ccc(CN(CC)CC)cc1`, for which, in [1], the 50% growth inhibitory concentration (GI50) is 6 nM. On to `C[C@@H]1C/C=C/CC/C=C/C(=O)Cc2c(Cl)c(O)cc(O)c2C(=O)O1` [POCHONIN D], for which, in data set [4], the IC50 amounted to 80 nM. `C[C@@H]1C[C@H]2C[C@@H]2/C=C\C=C\C(=O)Cc2c(Cl)c(O)cc(O)c2C(=O)O1` [CYCLOPROPARADICICOL] had an IC50 in data set [9] of 43 nM. The same compound gave an ED50 in data set [4] of 160 nM. As to `Cc1[nH]nc(-c2cc(Cl)c(O)cc2O)c1-c1ccc2c(c1)OCCO2`, in data set [11], the IC50 is under 1000 nM. The compound further registered a GI50 in data set [1] of 4000 nM. Consider `COC1=C2C[C@@H](C)C[C@H](OC)[C@H](O)[C@@H](C)/C=C(\C)[C@H](OC(N)=O)[C@@H](OC)/C=C\C=C(/C)C(=O)NC(=CC1=O)C2=O` [GELDANAMYCIN], for which, in data set [12], the inhibition of growth at 0.013 µM came out at 50%. For the compound `CC(C)(C)CNCCn1c(Sc2nc3cccc(Cl)c3s2)nc2c(N)ncnc21`, the half-inhibitory concentration (IC50) in [5] stood at 35 nM. As for `C#CCCCn1c(Cc2cc(OC)c(OC)c(OC)c2Cl)nc2c(N)nc(F)nc21`, the Activity in data set [13] was 72%. On to `C[C@@H]1C[C@H]2O[C@@H]2\C=C/C=C/C(=N\OC(=O)N2CCCCC2)Cc2c(Cl)c(O)cc(O)c2C(=O)O1`, for which it took 25 nM to reach half-maximal inhibition in data set [14] (IC50). For the compound `Oc1cc(O)c(-c2n[nH]cc2N2CCN(Cc3ccccc3)CC2)cc1Cl`, in [1], growth was halved (GI50) at 6500 nM. In the case of `COc1c(C)ncc(Cn2cnc3c(Cl)nc(N)nc32)c1C`, the IC50 in data set [15] amounted to 20 nM. In data set [16], the inhibition in vivo at 60 mg/kg turned out to be 83%. In addition, the inhibition in vivo at 125 mg/kg in data set [17] turned out to be 87%. Take `CCNC(=O)c1noc(-c2cc(C(C)C)c(O)cc2O)c1-c1ccc(CN2CCOCC2)cc1` [LUMINESPIB]: the inhibition in vivo at 50 mg/kg in [18] came out at 50%. Compound `COc1ccc(I)c(Sc2nc3c(N)ncnc3n2CCCNC(C)(C)C)c1` yielded a solubility in data set [7] of over 10000 µg/mL. In data set [7], `COc1ccc(I)c(Sc2nc3c(N)ncnc3n2CCNCC(C)(C)C)c1` had a solubility of over 10000 µg/mL. For the same compound, in data set [19], the inhibition in vivo at 200 mg/kg was determined as 70%. In data set [1], `CCc1cc(-c2[nH]nc(C)c2-c2ccc3c(c2)OCCO3)c(O)cc1O` gave a GI50 of 4100 nM.

The values above are taken from ChEMBL document CHEMBL1154504, “Discovery and development of heat shock protein 90 inhibitors” (Bioorg Med Chem, 2009).
